Key:
[1] = biological target: ER-X (plasma-membrane estrogen binding site of P7 ERKO and wild-type neocortex); assay: 3H-estradiol saturation binding to Percoll-purified neocortical plasma-membranes; set-up: species or system mouse; conditions: Percoll-purified plasma-membranes from P7 ERKO and wild-type neocortex, 50 μg/tube, 18 hours at 4° C.; read-out: equilibrium dissociation constant, Kd
Protocol: Binding of ^3H estradiol to Percoll®-purified plasma-membranes from P7 ERKO and wild-type mouse neocortex. (a) Identical amounts of membrane protein (50 μg/tube) were incubated with varying concentrations of ^3H estradiol (0.3-8 nM) for 18 hours at 4° C. The reaction was terminated by addition of hydroxylapatite (HAP). The membranes and HAP were sedimented by centrifugation in a microfuge, and the pellet washed 4 times to remove free steroid. Radioactivity in the pellets was extracted with ethanol and counted. […] (b) Specificity of the binding site in Percoll®-purified membranes from P7 ERKO mouse neocortex. […] Bound ^3H estradiol was separated by sedimentation with HAP and counted at an efficiency of 50%. Data represent the number of bound counts (after subtraction of HAP-only blank control tubes, containing no membrane protein) expressed as the means +/-S.D. of triplicate determinations. The horizontal dashed line indicates the level of non-specific binding observed in the presence of 1 μM DES. Caveolar-like membrane (CLM) preparation. Membrane fractions were prepared by adapting the detergent-free method of Smart et al. (Smart, 1995). […] The ethanol supernatants were transferred to liquid scintillation fluid (5 ml) and counted. […] Specific binding was calculated by subtracting non-specific from total binding.

[2] = system: estrogen-binding protein (ER-X); assay: DES-sensitive 3H-estradiol binding in CLM preparations and lysates; set-up: species or system mouse
Protocol: Caveolar-like membrane (CLM) preparation. Membrane fractions were prepared by adapting the detergent-free method of Smart et al. (Smart, 1995). Briefly, pools of 40-50 P7 ERKO neocortices were homogenized in 20 mM Tricine, pH 7.8 buffer, containing 1 mM EDTA, 0.25M sucrose and 1 mM dithiothreitol (TESD buffer), then centrifuged at 1000×g at 4° C. for 10 minutes. The pellet was resuspended in TESD buffer, re-centrifuged, and the supernatants pooled. The combined supernatants were subjected to Percoll® gradient fractionation in the same buffer to isolate the plasma membrane fraction. In some binding experiments (indicated below), Percoll® purified plasma membranes were used without further fractionation. For preparation of CLMs, plasma-membranes were sonicated and further separated by centrifugation on a linear 20% to 10% OptiPrep (iodixanol) gradient (Nycomed Pharma AS, Oslo, Norway). Based upon their light buoyant density, CLMs were separated and purified from non-CLMs using two OptiPrep density gradients. […] Electrophoretically separated CLMs on PVDF membranes were probed with antibodies specific for ER-α ([…], UBI; MC20, Santa Cruz), ER-β (Zymed), flotillin (BD Transduction Labs) and other caveolar-resident proteins (PKC-α and PKC-γ, BD Transduction Labs) and non-caveolar-resident proteins (paxillin, BD Transduction Labs). Estrogen binding assay. Duplicate aliquots of 1 mg each of protein lysate from ERKO P7 neocortex or wild-type adult uterus were pre-cleared for 30 minutes using anti-rabbit-IgG-coated magnetic beads (Dynal AS). Pre-cleared protein lysates were immunoprecipitated with anti-ER-α antibodies (6F11, Novocastra; or MC20, Santa Cruz) at 4° C. overnight. […] NEN Life Sciences, Boston, Mass.) at 4° C. for 18 hours. The incubation was terminated by adsorption of the binding sites onto an equal volume of hydroxylapatite (HAP) slurry in TESD buffer. HAP pellets were washed four times with Tris-buffered saline containing 0.2% Tween-20 buffer and extracted with 1 ml absolute ethanol overnight at room temperature. The ethanol supernatants were transferred to liquid scintillation fluid (5 ml) and counted. Control tubes, used in assessing HAP adsorption of free steroid, contained HAP and the same buffer constituents, without addition of the membranes. Non-specific binding was assayed in the membranes using the same amount of radioactive ligand plus 200-fold molar excess of unlabeled diethylstilbestrol (DES) (Sigma-Aldrich). Specific binding was calculated by subtracting non-specific from total binding.

Kd [1]: ~1.6 nM
DES-sensitive estrogen binding ([2]; P7 ERKO neocortical lysates): 9.94 fmol/mg lysate protein
DES-sensitive estrogen binding ([2]; neocortical CLM preparations from P7 ERKO mice, 10 nM 3H-estradiol): 282.12 fmol/mg CLM protein
DES-sensitive estrogen binding ([2]; wild-type adult uterine lysates): 38.85 fmol/mg lysate protein
SMILES: C[C@]12CC[C@@H]3c4ccc(O)cc4CC[C@H]3[C@@H]1CC[C@@H]2O [^3H-estradiol, 2,4,6,7, 16, 17-^3H estradiol]
